Measurements published in patent publication US8741843B2, “Compositions and methods for inducing angiogenesis” (priority 2006, dated 2014).
“Also recorded” adds a separate entry of the source.

What was measured:
[1] = system: endothelial cells (HUVEC); test: Proliferation of endothelial cells under hypoxia ([H3]Thymidine incorporation); type: cell-based, human; conditions: 24 hours starvation, 10 ng/ml
Protocol: FIG. 5 is a graph depicting cell proliferation as a function of ADOPeps' concentration. Proliferation of endothelial cells (EC) under hypoxia conditions was measured by [H^3]Thymidine incorporation. Endothelial cells (12,000/well) in minimal growth medium were incubated for 24 hours in the presence of 1, 10 and 100 ng/ml of ADOPep1 (SEQ ID NO:2; red diamonds), 2 (SEQ ID NO:3; blue squares) and 3 (SEQ ID NO:4; green triangles) peptides.
HUVEC from passage 3 were used for proliferation experiments. Endothelial cells (15,000 cells/well) were seeded on 24-wells in the presence of endothelial cell growth medium (Promocell, Heidelberg, Germany) with supplements and incubated for 24 hours. After then, cells were exposed to 24 hours starvation in a medium free of supplements. ADOPeps were added at concentrations of 1, 10 and 100 ng/ml for 24 hours under hypoxic conditions. 2 μCi/well of Thymidine (SIGMA, Rehovot Israel) were added or over night incubation followed by 3 washes with PBS before harvesting at 37° C. with 300 μl/well of 0.5 M NaOH. Cell lysates were transferred to scintillation vials with 2 ml scintillation liquid Ultima Gold (Packard Bioscience, Meriden, USA) and counted in a β counter. Results were obtained as counts per minute (cpm).

mouse ischemic hind limb [2] = test: Mouse hind-limb ischemia model, laser Doppler blood perfusion; type: in vivo; conditions: 0.1 microgram/mouse i.m., day 21 after surgery, vs PBS
Protocol: A mouse hind limb model was created by excision of femoral artery of C57B1 mouse hind limb, the non-operated limb served as a control. ADOPep1 (SEQ ID NO:2; red symbols) and 3 (SEQ ID NO:4; green symbols) were injected intra-muscularly one day after surgery at 0.1 (squares) and 1 (circles) micrograms/mouse. Injection of PBS (black diamond) was used as a control. Blood flow was measured using a laser Doppler immediately (T0) or at 7 (T7), 14 (T14) and 21 (T21) days after surgery. The average perfusion of each limb was determined and the perfusion ratio [expressed as Relative Perfusion (ischemic left/control right leg)] was plotted against time.
A mouse hind limb ischemia model was used. Ischemia was created in the C57B1 strain mouse by ligation and excision of the femoral artery on the left hind limb. The right hind limb served as a control. A day after the operation ADOPep1 and 3 were injected intramuscular at a site close to the operation. […] The blood perfusion was measured using a Laser Doppler Blood perfusion analyzer (Perimed, Sweden) one day post operation and 7, 14, 21 days post operation. The average perfusion of each limb was computed and percent perfusion ratio was expressed as the ischemic (left)/control (right) percent perfusion ratio.

[3] = system: GRP78 receptor on endothelial cells; test: Competitive binding of ADOPeps to GRP78 (anti-GRP78 antibody ELISA on endothelial cells); parameters: species or system human; conditions: summary of 4 experiments
Protocol: FIG. 19 is a graph depicting inhibition of binding (in percentages) of anti-GRP78 antibody to endothelial cells by increasing concentrations of ADOPep1, 2, and 3 peptides. Endothelial cells were incubated for 2 hours with increasing concentrations of ADOPeps, following which the cells were incubated for another 1 hour with the 2 μg/ml of anti-GRP78 antibody and the amount of bound antibody on EC was detected using an ELISA reader.
Endothelial cells (20,000 per well) were seeded in 96 well plates for 24 hours in the presence of the complete medium. Plates were washed with PBS over night and rehydrated with PBS, 0.1% Na Azide and 5% FCS. ADOPep1, ADOPep2 and ADOPep3 were added to washed plates for 2 hours at room temperature at concentrations of 0.01, 0.1 and 1 microgram per ml. Anti-GRP78 antibody (goat polyclona IgG, Santa Cruz Biotechnology, Calif., USA) was added to the plates for 1 hour at room temperature at a concentration of 2 micrograms/ml per well. After washing, bound anti-GRP78 antibody was detected by incubation with anti-goat IgG Peroxidase conjugated (Jackson Immuneresearch Laboratories, PA, USA). After 5 washes with PBS-0.1% Tween 20, 100 μl/well of TMB+ Substrate-Chromogen (DAKOCytomation, CA, USA) was added for a maximum of 30 minutes. Reaction was stopped with 1N HCl. Color developed was determined by an ELISA reader at 450 nm.

[4] = system: GRP78 in mouse ischemic hind limb; test: GRP78-positive cells in ischemic hind limb sections; type: in vivo; conditions: 1 μg/mice, 7 to 14 days post ligation, vs PBS
Protocol: FIG. 21 is a bar graph depicting the mean number of GRP78-positive (GRP78+) cells per area in hind limb ischemia treated with ADOPep1 as a function of the days post induction of ischemia. Mice were subjected to hind limb ligation (the ischemic model) and after one day the mice were injected with either 1 μg/mice of ADOPep1, or 50 μl of PBS as control. The number of GRP78 positive cells was determined in histological sections prepared from ligated hind limbs (injected with ADOPep1 or PBS) of mice sacrificed at 7, 14 or 21 days post ischemia induction or normal untreated (non-ischemic) hind limbs.

mouse ischemic hind limb [5] = test: Apoptotic cells in ischemic hind limb sections; type: in vivo; conditions: 1 μg/mice, 7 days post ligation, vs PBS
Protocol: FIG. 22 is a bar graph depicting the number of apoptotic cells per field in ischemic hind limb treated with ADOPep1 as a function of days after ischemia induction. Mice were subjected to hind limb ligation and PBS or ADOpep1 injection as described in the description of FIG. 21, hereinabove, and the number of apoptotic cells per microscopical filed was determined in histological sections prepared from either ligated and ADopep or PBS treated hind limbs of mice sacrificed at 7, 14 or 21 days post ischemia induction or from normal non-ischemic hind limbs.

GRP78 = GRP78 (Homo sapiens, UniProt P11021); test: GRP78 receptor internalization in endothelial cells under hypoxia; type: cell-based; parameters: endogenous in cells; host or cells: HUVEC / endothelial cells from umbilical cords, under normoxia or hypoxia; conditions: 10 ng/ml, after 5 minutes of incubation
Protocol: FIG. 29 is a graph depicting GRP78 receptor internalization response to ADOPep1 binding under hypoxic conditions. Endothelial cells were incubated under starvation conditions and hypoxia over night. Cells were incubated with 10 ng/ml ADoPep1 for 5, 15, 30 and 60 minutes. For membrane staining biotinylated AdoePep1 at 5 micrograms was added to intact cells for 1 hour and replaced by streptavidin FITC. For intracellular staining, cells were fixed with 1% paraformaldehyde followed by 15 minutes incubation with 0.1% saponin. After washing of cells, biotinylated AdoPep was added to the cells. The samples were analyzed with a FACScan (Beckton Dickinson). Membrane staining is shown by the blue bars (results are expressed in percentages, as normalized to untreated cells); Mean intracellular staining is shown by the purple bars (results are expressed in mean fluorescence);

Chain of GRP78 (P11021 19-654): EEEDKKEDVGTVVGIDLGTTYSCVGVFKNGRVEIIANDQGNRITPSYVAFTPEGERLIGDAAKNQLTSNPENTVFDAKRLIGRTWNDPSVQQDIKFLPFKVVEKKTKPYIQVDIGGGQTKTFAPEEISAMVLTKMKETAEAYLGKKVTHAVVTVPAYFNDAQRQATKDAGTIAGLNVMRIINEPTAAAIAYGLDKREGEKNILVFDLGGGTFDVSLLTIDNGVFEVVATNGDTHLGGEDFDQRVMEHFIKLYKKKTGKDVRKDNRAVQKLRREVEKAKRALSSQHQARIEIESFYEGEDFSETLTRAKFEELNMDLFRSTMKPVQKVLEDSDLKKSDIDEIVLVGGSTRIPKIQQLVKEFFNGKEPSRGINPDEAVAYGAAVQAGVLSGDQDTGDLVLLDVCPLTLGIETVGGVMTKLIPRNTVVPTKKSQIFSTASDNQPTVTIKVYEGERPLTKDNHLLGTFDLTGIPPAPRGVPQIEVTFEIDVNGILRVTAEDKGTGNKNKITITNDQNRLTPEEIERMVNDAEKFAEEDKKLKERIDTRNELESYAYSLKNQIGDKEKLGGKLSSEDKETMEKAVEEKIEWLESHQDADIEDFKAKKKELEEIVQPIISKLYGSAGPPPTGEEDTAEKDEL

## HWRRAHLLPRLP [ADOPep1, ADAM15 derived peptide, amino acids 286-297 of the metalloprotease domain]
[1]
  proliferation of endothelial cells: capable of inducing proliferation of EC
[1]; listed as ADOpep1
  proliferation of endothelial cells: induced proliferation of endothelial cells
Mouse ischemic hind limb [2]
  blood perfusion ratio (ischemic left/control right): significant increase in the blood perfusion ratio; also recorded: significant increase in blood perfusion (p<0.05)
[3]
  inhibition of binding of anti-GRP78 antibody to EC (in words): some degree of inhibition
[4]
  mean number of GRP78 positive cells: significantly increased
[4]; listed as Adopep1
  mean number of GRP78 positive cells: more significant increase in mean number of GRP78 positive cells
Mouse ischemic hind limb [5]
  number of apoptotic cells per field: significant decrease
Mouse ischemic hind limb [5]; listed as ADoPep1
  number of apoptotic cells per field: dramatically decreased
GRP78
  GRP78 receptor internalization: induced GRP78 receptor internalization
